We go through three molecules from publication PMC1257591, “In Vitro Inhibition of Human Hepatic and cDNA-Expressed Sulfotransferase Activity with 3-Hydroxybenzo[a]pyrene by Polychlorobiphenylols” (Environmental Health Perspectives, 2005).

Assay [1] deals with T1, SULT1B1 (Homo sapiens, UniProt O43704).
T1 construct: made in house; host or cells: Escherichia coli
As to the kind of experiment: Kinetics of 3-OH-BaP sulfonation by partially purified cDNA-expressed SULT1B1. It counts as biochemical. Particulars: concentration range up to 5 μM. An excerpt: (§1) The expression of human SULT1A1*1, SULT1A3, SULT1B1, and SULT1E1 in Escherichia coli has been described previously ([Dajani et al. 1998]; [Wang et al. 1998]). We grew E. coli cells containing the respective sulfotransferase genes as described previously ([Falany et al. 1990], [1994]), and prepared 100,000g supernatant fractions for use in inhibition studies and for partial purification of the SULT enzymes. We purchased expressed SULT1A1*2 cytosolic extract from PanVera (Madison, WI) and used it as supplied.
(§2) The 100,000g supernatant fractions of SULT1A1*1, SULT1A3, SULT1B1, and SULT1E1 were partially purified by chromatographic methods ([Falany et al. 1990], [1994]). […] We analyzed active fractions by SDS-PAGE ([Laemmli 1970]) to assess the purity of each SULT enzyme. We stained the gels with Coomassie R-250 reagent and determined the percentage of protein present as each respective SULT enzyme by scanning densitometry.
(§3) We determined SULT activity with 3-OH-BaP as substrate by a fluorimetric assay of BaP-3-SO4 product formation, as described previously ([Wang et al. 2004]). […]
(§4) We determined the kinetic parameters for 3-OH-BaP sulfonation by partially purified preparations of the cDNA-expressed SULT isozymes under incubation conditions similar to those used for liver cytosol. […]

For assay [2], the target named is T2, SULT1A1*2 (Homo sapiens, UniProt P50225, R213H).
T2 construct: purchased PanVera (Madison, WI); host or cells: Sf-9
T2 sequence (P50225 whole entry R213H): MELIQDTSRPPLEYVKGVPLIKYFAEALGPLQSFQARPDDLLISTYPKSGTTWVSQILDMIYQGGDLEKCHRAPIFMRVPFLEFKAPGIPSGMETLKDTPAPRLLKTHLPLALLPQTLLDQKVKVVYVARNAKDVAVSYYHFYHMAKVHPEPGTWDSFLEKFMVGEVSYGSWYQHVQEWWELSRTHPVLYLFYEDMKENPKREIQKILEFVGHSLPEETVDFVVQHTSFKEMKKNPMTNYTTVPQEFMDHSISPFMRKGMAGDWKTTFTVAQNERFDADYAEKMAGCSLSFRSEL
In words: Kinetics of 3-OH-BaP sulfonation by expressed SULT1A1*2. The conditions noted are these: expressed SULT1A1*2. Type of assay: biochemical.
Description: as §1
(§5) We determined SULT activity with 3-OH-BaP as substrate by a fluorimetric assay of BaP-3-SO4 product formation, as described previously ([Wang et al. 2004]). […] Duplicate tubes were prepared for each incubation condition. We examined the kinetics of sulfonation in three liver cytosol fractions by systematically varying the concentration of 3-OH-BaP or PAPS. When the variable substrate was 3-OH-BaP, we used 12 concentrations in the range from 0.035 to 2.00 μM, and the concentration of PAPS was kept constant at 10 μM. When we varied PAPS, we used 7 concentrations from 0.157 to 10.0 μM and kept the concentration of 3-OH-BaP constant at 0.100 μM.
We determined the kinetic parameters for 3-OH-BaP sulfonation by partially purified preparations of the cDNA-expressed SULT isozymes under incubation conditions similar to those used for liver cytosol. For SULT1A1*1 and -1A1*2, we used seven substrate concentrations in the range from 5 to 100 nM; for SULT1E1 we used […] 3-OH-BaP concentrations from 15.6 to 1,000 nM; and for SULT1A3 and 1B1 we used seven concentrations of 3-OH-BaP from 0.25 to 5.0 μM.
(§6) We calculated the enzyme kinetic parameters from studies with variable concentrations of 3-OH-BaP using nonlinear regression analysis and GraphPad 4.0 software (GraphPad Software, San Diego, CA). We selected the built-in Michaelis-Menten equation for most analyses. Where we found evidence of 3-OH-BaP substrate inhibition, we fit the data into an equation derived from a two-substrate model ([Zhang et al. 1998]): […]
(§7) This equation denoted the constant for binding of the first substrate (S) molecule as Km and the second substrate molecule as Ki. V1 is the maximum rate for the noninhibitory substrate concentration range, and V2 is the minimum rate in the inhibitory substrate concentration range

Assay [3] addresses HL cytosol sulfotransferase (Homo sapiens, UniProt P50225). In words: Kinetics of 3-OH-BaP sulfonation by human liver cytosol (fluorimetric assay of BaP-3-SO4 formation). Type of assay: biochemical. How it is done:
F.P. Guengerich (Vanderbilt University) kindly donated the samples of human liver, which were procured from organ donors ([Guengerich 1995]). We prepared liver cytosolic fractions from four livers by standard methods and stored aliquots at −80°C until use ([Wang et al. 2004]). We used three or four of these cytosol fractions in each experiment.
as §5, §6, §7

The target in assay [4] is T3, SULT1E1 (Homo sapiens, UniProt P49888).
T3 construct: made in house; host or cells: Escherichia coli
T3 sequence (P49888 1-294): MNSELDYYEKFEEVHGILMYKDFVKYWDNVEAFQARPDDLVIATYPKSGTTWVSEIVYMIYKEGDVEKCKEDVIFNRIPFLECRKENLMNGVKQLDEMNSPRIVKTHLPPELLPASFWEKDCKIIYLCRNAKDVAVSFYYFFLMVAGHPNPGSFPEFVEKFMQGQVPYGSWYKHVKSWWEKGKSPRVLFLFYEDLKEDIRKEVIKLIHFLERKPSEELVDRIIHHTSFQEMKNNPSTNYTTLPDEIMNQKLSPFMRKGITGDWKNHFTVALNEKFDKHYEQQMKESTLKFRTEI
In words: Kinetics of 3-OH-BaP sulfonation by partially purified cDNA-expressed SULT1E1. Type of assay: biochemical.
Description: as §1, §2, §3, §4

The target of assay [5] is T4, SULT1A3 (Homo sapiens, UniProt P0DMM9).
T4 construct: made in house; host or cells: Escherichia coli
T4 sequence (P0DMM9 whole entry): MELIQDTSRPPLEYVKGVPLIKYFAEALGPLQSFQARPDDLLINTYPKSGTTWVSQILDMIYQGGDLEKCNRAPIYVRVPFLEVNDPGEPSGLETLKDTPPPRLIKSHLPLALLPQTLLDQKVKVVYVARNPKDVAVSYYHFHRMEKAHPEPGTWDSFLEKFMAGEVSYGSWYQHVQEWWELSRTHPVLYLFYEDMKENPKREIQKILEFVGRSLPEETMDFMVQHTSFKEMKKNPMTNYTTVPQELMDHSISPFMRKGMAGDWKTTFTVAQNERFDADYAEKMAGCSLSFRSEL
As to the kind of experiment: Kinetics of 3-OH-BaP sulfonation by partially purified cDNA-expressed SULT1A3. Type of assay: biochemical. The conditions noted are these: concentration range up to 5 μM.
Description: as §1, §2, §3, §4

Assay [6] deals with T5, SULT1A1*1 (Homo sapiens, UniProt P50225).
T5 construct: made in house; host or cells: Escherichia coli
In words: Kinetics of 3-OH-BaP sulfonation by partially purified cDNA-expressed SULT1A1*1. Type of assay: biochemical.
Description: as §1, §2, §3, §4

For assay [7], the target named is HL cytosol 3-OH-BaP sulfotransferase (Homo sapiens, UniProt P50225). As to the kind of experiment: Kinetics of 3-OH-BaP sulfotransferase inhibition by 4′-OH-CB112 in HL cytosol. Type of assay: biochemical. How it is done: To study the type of inhibition produced by OH-PCBs, we used 4′-OH-CB112 (B5) as a model inhibitor. We prepared four sets of assay tubes containing HL cytosol and varying amounts of 3-OH-BaP from 35 to 150 nM: one set (control) contained no 4′-OH-CB112; the other sets contained 0.25 μM, 0.5 μM, or 1.0 μM 4′-OH-CB112.
HL cytosol 3-OH-BaP sulfotransferase, sequence (P50225 whole entry): as the sequence (P50225 whole entry R213H) above, with H213R counted along it
(§8) We calculated the effects of OH-PCBs on 3-OH-BaP SULT activity as percentage inhibition compared with the controls without an inhibitor. We obtained IC50 values by fitting log OH-PCB concentration and percent control activity to a sigmoidal curve. We examined the relationships between IC50 and physicochemical properties of the OH-PCBs by linear correlation analysis. We calculated the inhibitory constant (Ki) from the kinetic studies with 4′-OH-CB112 by means of Dixon plots and plots of Km/Vmax against inhibitor concentration ([Cornish-Bowden 1995]).

The target in assay [8] is T3, SULT1E1. As to the kind of experiment: Inhibition of 3-OH-BaP sulfotransferase activity by OH-PCBs with cDNA-expressed SULT1E1. Type of assay: biochemical. The conditions noted are these: mean of duplicates, read-out: IC50 SULT1E1.
Description: as §1, §5
(§9) For each OH-PCB, we examined the concentration dependence of inhibition with three liver cytosol fractions, as well as with cytosol fractions from the E. coli expressing SULT1A1*1, SULT1A3, SULT1B1, and SULT1E1, and the purchased Sf-9 cytosol fraction (PanVera, Madison, WI) containing SULT1A1*2. For studies with HL cytosol, SULT1A1*1, and SULT1E1, we examined two concentrations of 3-OH-BaP, 0.1 μM and 1.0 μM.
as §8

Assay [9] concerns the target T1, SULT1B1. As to the kind of experiment: Inhibition of 3-OH-BaP sulfotransferase activity by OH-PCBs with cDNA-expressed SULT1B1. Particulars: 1.0 μM 3-OH-BaP; mean of duplicates; read-out: IC50 SULT1B1. It counts as biochemical.
Description: as §1, §5, §9, §8

Assay [10] deals with T2, SULT1A1*2. In words: Inhibition of 3-OH-BaP sulfotransferase activity by OH-PCBs with expressed SULT1A1*2. Type of assay: biochemical. The conditions noted are these: 0.1 μM 3-OH-BaP; mean of duplicates; read-out: IC50 SULT1A1*2.
Description: as §1, §5, §9, §8

Assay [11] addresses T5, SULT1A1*1. In words: Inhibition of 3-OH-BaP sulfotransferase activity by OH-PCBs with cDNA-expressed SULT1A1*1. It counts as biochemical. The conditions noted are these: mean of duplicates, read-out: IC50 SULT1A1*1.
Description: as §1, §5, §9, §8

Assay [12] has as its target T4, SULT1A3. In words: Inhibition of 3-OH-BaP sulfotransferase activity by 50 μM OH-PCBs with cDNA-expressed SULT1A3. Type of assay: biochemical. The conditions noted are these: 50 μM OH-PCB; 1.0 μM 3-OH-BaP.
Description: as §1, §5, §9, §8

For assay [13], the system named is SULT1A3. The arrangement: method as in Ma et al. 2003. Particulars: ref Ma et al. 2003; cited from earlier work.
For assay [14], the system named is SULT1E1. Further details: method as in Ma et al. 2003. Particulars: ref Ma et al. 2003; cited from earlier work.
For assay [15], the system named is SULT1A1. The arrangement: method as in Ma et al. 2003. The conditions noted are these: ref Ma et al. 2003; cited from earlier work.
Where [16] appears, read: HL 2 cytosol (heterozygous SULT1A1*1/*2).
[17] abbreviates: HL 3 cytosol (homozygous SULT1A1*2).

“And” between values parts separate entries of the source, which are not always exact repeats. Equal values may be shown once. Read-outs that look alike come from different tables or passages of the source.

HL cytosol sulfotransferase, sequence (P50225 whole entry): as the sequence (P50225 whole entry R213H) above, with H213R counted along it
T1 sequence (O43704 whole entry): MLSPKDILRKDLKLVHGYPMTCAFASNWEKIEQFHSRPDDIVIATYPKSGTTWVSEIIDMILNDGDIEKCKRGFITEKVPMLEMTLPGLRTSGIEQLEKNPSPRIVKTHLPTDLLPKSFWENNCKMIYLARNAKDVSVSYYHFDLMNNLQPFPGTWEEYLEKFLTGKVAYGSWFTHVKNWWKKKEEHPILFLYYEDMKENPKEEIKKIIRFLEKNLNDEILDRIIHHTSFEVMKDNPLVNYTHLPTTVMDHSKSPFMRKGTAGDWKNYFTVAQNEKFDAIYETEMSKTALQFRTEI

`Oc1ccc2ccc3c4ccccc4cc4ccc1c2c43` [Compound 3-OH-BaP, 3-hydroxybenzo[a]pyrene]: the substrate inhibition entry in [1] and in [5] was “did not exhibit substrate inhibition” throughout. Further, the V1 in assay [2] was 4,400 pmol/min/mg protein; in [3] (HL 1 cytosol (homozygous SULT1A1*1), maximum rate, noninhibitory substrate range), 121 pmol/min/mg protein; in assay [3] (setting [16]), 93.0 pmol/min/mg protein; in assay [3] (setting [17]), 94 pmol/min/mg protein and 94.4 pmol/min/mg protein; in assay [3] (HL cytosol, mean ± SD of three livers), 102 ± 15.8 pmol/min/mg protein. Also, the V2 in [2] is given as 290 pmol/min/mg protein; in assay [3] (HL 1 cytosol (homozygous SULT1A1*1), minimum rate, inhibitory substrate range), 2 pmol/min/mg protein; in assay [3] (setting [16]) it was 38.50 pmol/min/mg protein; in assay [3] (setting [17]), 31.0 pmol/min/mg protein. This molecule also yielded a Ki in assay [2] (substrate inhibition) of 0.16 µM. Further, the “3-OH-BaP concentration resulting in a decrease in activity (substrate inhibition)” value in assay [3] (HL cytosol) is above 0.15 µM. The “3-OH-BaP concentration showing substrate inhibition” value in assay [4] and in [6] was above 0.15 µM throughout. Also, in assay [7] (0 μM B5, mean ± SD n = 3), the “Vmax (3-OH-BaP sulfotransferase activity)” value worked out at 69.1 ± 8.0 B pmol/min/mg protein.

Consider `Oc1ccc(-c2c(Cl)c(Cl)cc(Cl)c2Cl)cc1Cl` [Compound B5, 4′-OH-CB112], for which the IC50 was 5.35 µM in assay [8] (0.1 μM 3-OH-BaP); 23.2 µM in [8] (1.0 μM 3-OH-BaP); 86.5 µM in assay [9]; 1.48 µM in [10]; 1.17 µM in assay [11] (0.1 μM 3-OH-BaP); 42.5 µM in assay [11] (1.0 μM 3-OH-BaP). In addition, the type of inhibition result in [7] (3-OH-BaP 35 to 150 nM) was “noncompetitive”. For the same molecule, the “Vmax (3-OH-BaP sulfotransferase activity)” value was found to be 56.3 ± 6.0 B pmol/min/mg protein in assay [7] (in presence of 0.25 μM B5, two livers); 41.2 ± 3.3 C pmol/min/mg protein in assay [7] (in presence of 0.5 μM B5, n = 3); 33.3 ± 3.2 D pmol/min/mg protein in assay [7] (in presence of 1.0 μM B5, n = 3). In addition, in assay [12], the “inhibition of 3-OH-BaP sulfonation by SULT1A3” value is “did not inhibit”.

Take `Oc1ccc2ccc3cccc4ccc1c2c34` [1-hydroxypyrene]: the Km in assay [13] was 0.8 µM; in assay [14] it was 0.021 µM; in assay [15], 0.008 µM.

In general, IC50 refers to the concentration at which inhibition is half-maximal. What is called Km is the substrate concentration at which the rate is half of its maximum.
